Where a name gives a salt, the structure may show the parent alone. Read-outs that look alike come from different tables or passages of the source.
What was measured:
[1] = test system: Influenza A/PR/3/34 (HO, Nl) strain; test: microbe, parasite or virus in culture; assay type: cell-based; settings: for HA-titer / MIC: MDCK cells; for HA-titer: 34° C., 3 days, control 256; for MIC: 72 h, Influenza virus; for inhibitory effects on Influenza virus growth: comparison of the two compounds, in words
[2] = test system: MDCK cells; settings: 3 days, microscopic CTE
[3] = in vitro; settings: dog, mdck
[4] = test system: Newcastle disease virus; settings: Koji Aigami et al., J. of Medicinal Chemistry, vol. 19, 536 (1976); cited from earlier work

Row | SMILES | HA-titer ([1]; 12.5 mcg/ml) | HA-titer ([1]; 25.0 mcg/ml) | HA-titer ([1]; 50.0 mcg/ml) | MIC [1] [µg/mL] | inhibitory effects on Influenza virus growth [1] | Cytotoxicity ([2]; 25.0 mcg/ml) | Cytotoxicity ([2]; 50.0 mcg/ml) | MNTC at 72 h [3] [µg/mL] | antiviral activity against Newcastle disease virus [4] | Cytotoxicity ([2]; 12.5 mcg/ml)
1 | CN(C)C12CCCC3CC(CCC31)C2 (stereo not shown) | 64 | 64 | < 4 | < 12.5 | equivalent inhibitory effects on Influenza virus growth | (±) (CTE is less than 10% of cells.) | (+) (CTE is more than 10% and less than 50% of cells.) | 25 |  | 
2 | NC12CCCC3CC(CCC31)C2 (stereo not shown) [3-amino-4-homoisotwistane hydrochloride] |  |  |  |  |  |  |  |  | have antiviral activity against Newcastle disease virus | 
3 | NC12CC3CC(CC(C3)C1)C2 [Amantadine hydrochloride] | 64 | < 4 |  | < 12.5 | equivalent inhibitory effects on Influenza virus growth | (+) (CTE is more than 10% and less than 50% of cells.) |  | 12.5 |  | (±) (CTE is less than 10% of cells.)

Source: patent publication US4283422A (priority 1979, dated 1981)
